Experimental data taken from article PMC4279401 (Oncotarget, 2014).
Entries after “also recorded” stand apart in the source; their conditions may differ. Read-outs that look alike come from different tables or passages of the source.

Columns and labels:
[1] = system: MDA-MB231, BT549 and MCF-7 breast cancer cells; experiment: Cell proliferation, MTT assay, DOT1L+ breast cancer cells; type: cell-based, Human; conditions: Homo sapiens, 360 h
[2] = system: H3K79 methylation; experiment: Western blot of histone methylation in MCF-7; type: cell-based, Human; conditions: MCF-7, Western blot, in words
Procedure: (§1) Human cell lines BT549, MDA-MB231, MCF-7, MDA-MB157, HCC70, A549 and NB4 were obtained from the American Type Culture Collection (ATCC) and cultured using ATCC recommended conditions. Primary antibodies against H3K79me2, H3K27me3, H3K4me3, H3K36me2, H4K20me3, H3K9me-pan were purchased from Cell Signaling (Danvers, MA). siRNA experiments were performed by transfecting MDA-MB-231 cells with X-tremeGENE Transfection Reagent (Roche) and 10 nM siRNA (Invitrogen), according to the manufacturer's protocol.
(§2) 10^6 cells/well were incubated with increasing concentrations of a compound for 5 days and histones extracted with the EpiQuik™ Total Histone Extraction Kit (Epigentek) according to the manufacturer's protocol. Equal amounts of histones (2μg) were separated on SDS-PAGE and transferred to PVDF membranes. The blots were probed with primary antibodies, followed by anti-rabbit IgG (Thermo Scientific) secondary antibodies. For western blot analysis of MDA-MB231 xenograft tumors, tumors were harvested and frozen in liquid nitrogen. Histones were extracted and analyzed by immunoblotting as described above.

[3] = system: A549; experiment: Cell proliferation, MTT assay; type: cell-based, Human; conditions: for EC50: Homo sapiens, read-out: Anti-proliferative activity EC50
[4] = system: MDA-MB231 cells; experiment: ALDEFLUOR assay; type: cell-based, Human; conditions: in words
Procedure: (§3) 5 × 10^4 cells/well were incubated with compounds for 14 days. The ALDH activity of cells was determined by using the ALDEFLUOR assay kit (StemCell Technologies) according to the manufacturer's instructions. Combinations of fluorochrome-conjugated monoclonal antibodies against human CD44-FITC and CD24-PE were obtained from BD Biosciences. Primary antibodies or the respective isotype controls (BD Biosciences) were added to the cell suspension, according to the manufacturer's recommendation, and incubated at 4°C for 20 min. Dead cells were eliminated using propidium iodide (Sigma). The labelled cells were analyzed on a FACS Calibur (BD Biosciences/Applied Biosystems).

[5] = system: H3K79 methylation; experiment: Western blot of histone methylation in MDA-MB231; type: cell-based, Human
Procedure: as §1, §2

[6] = system: MDA-MB231; experiment: Transwell cell migration assay; type: cell-based, Human
Procedure: (§4) 5 × 10^4 cells/well were incubated with compounds for 14 days. For transwell migration assays, 5× 10^4 cells were plated in the top chamber with the non-coated membrane (24-well insert; pore size, […]; BD Biosciences). For invasion assays, 5× 10^4 cells were plated in the top chamber with Matrigel-coated membrane. The cells on the apical side of each insert were then scraped off after 22 h for both assays. The wells were washed with PBS, fixed with 100% methanol and stained with DAPI. Cells that had migrated to the basal side of the membrane were visualized and counted with a Nikon Eclipse TE2000-U microscope at 10×. Pictures of three random fields were obtained and the number of cells that had migrated quantified using ImageJ analysis software.

[7] = in words; cited from earlier work
[8] = system: MCF-7; experiment: Cell proliferation, MTT assay; type: cell-based; conditions: Homo sapiens, read-out: Anti-proliferative activity EC50
[9] = system: MDA-MB231 cells; experiment: CD44/CD24 flow cytometry; type: cell-based, Human; conditions: MDA-MB231, FACS, in words
Procedure: as §3

[10] = system: MDA-MB231; experiment: Matrigel invasion assay; type: cell-based, Human
Procedure: as §4

[11] = system: MDA-MB157; experiment: Cell proliferation, MTT assay; type: cell-based; conditions: Homo sapiens, read-out: Anti-proliferative activity EC50
[12] = system: NB4; experiment: Cell proliferation, MTT assay; type: cell-based; conditions: Homo sapiens, read-out: Anti-proliferative activity EC50
[13] = system: MDA-MB231 cells; experiment: Microarray gene set enrichment analysis; type: cell-based, Human; conditions: 1 at 5 μM, 2 at 10 μM, in words
Procedure: 10^5 cells/well were incubated with compounds for 14 days. Cells were lysed immediately in TRIzol® Reagent, frozen in liquid nitrogen, and shipped to Asuragen, Inc. (Austin, TX) for microarray experiments. RNA was isolated, amplified, and hybridized to Illumina Human HT-12 v4 arrays according to the manufacturer's protocol. Microarray data were log2 transformed and then normalized to have the same median for all the arrays. Moderate t-statistics were used to test if genes were differentially expressed between the groups of interest. Benjamini and Hochberg method was used to correct for multiple comparisons. R and Bioconductor packages were used for all the statistical analyses (http://cran.us.r-project.org/, http://www.bioconductor.org/). Gene set enrichment analysis was performed using GSEA software from Broad Institute (Boston, MA).

[14] = system: HCC70; experiment: Cell proliferation, MTT assay; type: cell-based; conditions: Homo sapiens, read-out: Anti-proliferative activity EC50
[15] = system: MDA-MB157 and HCC70 as well as A549 and NB4; conditions: in words
[16] = system: BT549; experiment: Cell proliferation, MTT assay; type: cell-based; conditions: Homo sapiens, read-out: Anti-proliferative activity EC50
[17] = system: MDA-MB231; experiment: Cell proliferation, MTT assay; type: cell-based; conditions: Homo sapiens, read-out: Anti-proliferative activity EC50
[18] = system: five breast cancer cell lines, lung cancer A549 and non-MLL leukemia NB4 cells; experiment: Cell proliferation, MTT assay, whole panel; type: cell-based; conditions: Homo sapiens, 72 h; 3-day treatment, all seven cell lines; read-out: EC50 against all of these cells

Which EC50 ([1]; 15-day treatment, MDA-MB231, BT549, MCF-7, read-out: EC50 against proliferation) does the source give for `CC(C)N(CCCNC(=O)Nc1ccc(C(C)(C)C)cc1)C[C@H]1O[C@@H](n2ccc3c(N)ncnc32)[C@H](O)[C@@H]1O` [Compound 1, EPZ004777] here?
The EC50 was 0.19 to 1.4 µM.

What about the EC50 ([1]; DOT1L+ breast cancer cells, 15-day, read-out: anti-proliferation EC50) of the same compound?
Its EC50 is at least 0.19 µM.

What about the “effect on H3K79 methylation” value [2] of the same compound?
The value was “significantly reduced H3K79 methylation; also recorded: considerably reduced H3K79 methylation”.

And the EC50 ([3]; 72 h, A549, 3-day treatment)?
The EC50 was 19 µM.

What about the EC50 ([3]; 360 h, A549, 15-day treatment) of the same compound?
The EC50 was 20 µM.

And the “activity against A549 cells” value ([3]; in words)?
The value was “negligible activity”.

What about the “ALDH+ cell population” value [4] of the same compound?
Its value is “considerably reduced”.

And the IC50 ([5]; Homo sapiens, MDA-MB-231, read-out: IC50 of H3K79 methylation inhibition)?
The IC50 was about 0.05 µM.

And the “effect on H3K79 methylation” value ([5]; in words)?
The value was “only inhibited H3K79 methylation”.

And the “inhibition of cell migration” value ([6]; MDA-MB231, Transwell)?
Its value is ~ 50%.

And the “cell migration and invasion” value ([6]; MDA-MB231, Transwell with and without Matrigel, in words)?
The value was “reduced abilities of cell migration and invasion”.

What about the pharmacokinetics [7] of the same compound?
Its pharmacokinetics is “poor pharmacokinetics with short plasma half-lives”.

What about the EC50 ([8]; MCF7, 72 h, MCF-7, 3-day treatment) of the same compound?
Its EC50 is 15 µM.

What about the EC50 ([8]; MCF7, 360 h, MCF-7, 15-day treatment) of the same compound?
The EC50 was 0.95 µM.

What about the “CD44+/CD24− cell population” value [9] of the same compound?
Its value is “significantly decreased”.

What about the “cell population expressing high levels of CD24” value [9] of the same compound?
Its value is “considerably more cells expressed higher levels of CD24; also recorded: increased cell population”.

What about the “inhibition of Matrigel invasion” value [10] of the same compound?
Its value is about 25%.

What about the EC50 ([11]; MDA-MB-157, 72 h, MDA-MB157, 3-day treatment) of the same compound?
The EC50 was over 50 µM.

What about the EC50 ([11]; MDA-MB-157, 360 h, MDA-MB157, 15-day treatment) of the same compound?
Its EC50 is 27 µM.

What about the EC50 ([12]; NB-4, 72 h, NB4, 3-day treatment) of the same compound?
Its EC50 is 21 µM.

What about the EC50 ([12]; NB-4, 360 h, NB4, 15-day treatment) of the same compound?
Its EC50 is 22 µM.

What about the “genes whose expression is low in breast CSCs (GSEA)” value [13] of the same compound?
Its value is “upregulation”.

What about the “pro-proliferation genes in the PAM50 gene set (GSEA)” value [13] of the same compound?
The value was “downregulation”.

What about the EC50 ([14]; 72 h, HCC70, 3-day treatment) of the same compound?
Its EC50 is 20 µM.

What about the EC50 ([14]; 360 h, HCC70, 15-day treatment) of the same compound?
Its EC50 is 12 µM.

And the “activity against DOT1L−/low breast or non-breast cancer cells” value [15]?
The value was “inactive”.

And the EC50 ([16]; BT-549, 72 h, BT549, 3-day treatment)?
Its EC50 is 29 µM.

What about the EC50 ([16]; BT-549, 360 h, BT549, 15-day treatment) of the same compound?
Its EC50 is 0.71 µM.

And the EC50 ([17]; MDA-MB-231, 72 h, MDA-MB231, 3-day treatment)?
The EC50 was 45 µM.

What about the EC50 ([17]; MDA-MB-231, 360 h, MDA-MB231, 15-day treatment) of the same compound?
The EC50 was 0.19 µM.

And the EC50 [18]?
The EC50 was at least 15 µM.
